Read-outs that look alike come from different tables or passages of the source.

Data set [1] can be described thus: In vitro release of NMP, USP II paddle method in 0.5% SDS solution. The settings on record: 250 mL, 37 °C, 50 rpm, 10 mg NMP. The format is physicochemical. As to the method:
The in vitro release behavior of samples was assessed by a USP II paddle method on a dissolution apparatus (ZRS-8G, Huanghai Medicament Test Instrument, China). Prewarmed medium of 0.5% (w/v) sodium dodecyl sulfate (SDS) solution (250 mL, 37 °C) was added to the dissolution cup with a stirrer rotation speed of 50 rpm. 10 mg NMP, NMP/MCM41 and NMP/PEIs@TA-CMSs samples containing 10 mg of NMP were suspended in the release medium. 5 mL of aliquots were collected and replaced by an equal volume of fresh isothermal supplement at predetermined time intervals, After filtering through a 0.22 μm membrane filter, the drug release amounts were tested by UV spectroscopy (UV-1750, Shimadzu, Japan) at 238 nm. All in vitro release studies were repeated three times.

Data set [2] can be described thus: In vivo pharmacokinetics after oral administration. Further details: species or system Sprague-Dawley rats. The settings on record: rats. As for the experimental part: Twelve male Sprague-Dawley rats (SD rats, 180–220 g body weight) were randomly divided into three groups (n = 4): NMP group, NMP/PEIs@TA-CMS group and NMP/MCM41 group. Prior to the experiment, animals were fasted overnight with free access to water. The animals were orally administered the water suspensions of NMP, NMP/PEIs@TA-CMS and NMP/MCM4 with a drug dose of 2.5 mg. At appropriate sampling times, aliquot blood sample (about 0.6 mL) was withdrawn via the retro-orbital venous sinus, centrifuged to separate the plasma, and stored at −20 °C.
In the pretreatment procedure, 20 μL of internal standard solution (nitrendipine, 20 μg/mL) was added into 200 μL plasma sample and vortexed for 1 min. Afterwards, 100 μL NaOH (0.01 mol/L) was uniformly mixed with the system and vortexed for 1 min. The drug was extracted by 2.5 mL diethyl ether, vortexed for 5 min, and centrifugated for 12 min to separate the organic layer (2 mL). The organic layer (2 mL) was then transferred to a new tube and evaporated to dryness under a gentle stream of N2. After reconstituting with 100 μL mobile phase, the 20 μL sample was analyzed by high performance liquid chromatography (HPLC) method. The separation procedure was performed on a Kromasil ODS-2C18 column (Thermo ODS-2 Hypersil, 250 mm × 4.6 mm, […], UK) equipped with a JanuSep C18 pre-column (Liaoning, China), and the column temperature was kept at 25 °C. The UV detector was set at 240 nm. The mixture of methanol, acetonitrile and water (3:4:3, v/v/v) was selected as the optimized mobile phase with a flow rate of 1 mL/min. The NMP content was calculated according to internal standard method, and the main pharmacokinetic parameters were obtained using the software of DAS 2.0.

For data set [3], the system named is cerebral anoxia of mice induced by NaNO2. The data set can be described thus: In vivo pharmacodynamics: survival time of mice on cerebral anoxia induced by NaNO2. On the set-up: species or system Kunming mice. To be noted: oral dose 0.5 mg NMP (middle dose); NaNO2 i.p. 90 min post administration. As for the experimental part:
The pharmacodynamics study was performed to further evaluating the effect of PEIs@TA-CMS on improving the oral adsorption of NMP. 36 SPF-grade Kunming mice (18–22 g body weight) were assigned into six groups, randomly (n = 6): Normal saline group, NMP group, NMP/PEIs@TA-CMS (low dose) group, NMP/PEIs@TA-CMS (middle dose) group, NMP/PEIs@TA-CMS (high dose) group and NMP/MCM41 group. Before dosing, animals were fasted overnight with free access to water. Animals in the Normal Saline group were received oral treatment of 0.5 mL normal saline, and were considered as negative control. While for NMP group which severed as positive control, 0.5 mg pure NMP was suspended in 0.5 mL normal saline and was imposed to animals. Normal saline suspensions of NMP/PEIs@TA-CMS and NMP/MCM41 containing 0.5 mg NMP were also oral administrated to mice. Meanwhile, half and twice of the dose in NMP/PEIs@TA-CMS (middle dose) group, which were respectively in doses equivalent to 0.25 mg and 1 mg NMP, were given to mice to further study the influence of dose. […] Then the clinic manifestation and survival time of mice was recorded to study the protective effect of NMP formulations on mice cerebral anoxia.

For data set [4] the following is noted: background statement, no reference given; cited from earlier work.

Take `COCCOC(=O)C1=C(C)NC(C)=C(C(=O)OC(C)C)C1c1cccc([N+](=O)[O-])c1` (stereo not drawn) [NMP, nimodipine]: in data set [1], the “drug release amount within 60 min” value was determined as 29.24% and the “drug release amount within 240 min” value is 41.32%. In data set [2] (male, Sprague-Dawley, rat, plasma, drug dose 2.5 mg), the half-life is 10.9 ± 1.13 h. The MRT inf in data set [2] (male, Sprague-Dawley, rat, plasma, drug dose 2.5 mg, read-out: MRT0-∞) was determined as 8.84 ± 1.73 h. The Cmax in data set [2] (male, Sprague-Dawley, rat, plasma, drug dose 2.5 mg, read-out: maximum concentration (Cmax)) turned out to be 100 ng/mL. Also, the total exposure AUC(0-inf) in data set [2] (male, Sprague-Dawley, rat, plasma, drug dose 2.5 mg, water suspension) was 1190 ± 160 ng·h/mL. For the same compound, in data set [2] (drug dose 2.5 mg), the Cmax worked out at 100 ± 20 ng/mL and the Tmax is given as 0.5 ± 0 h. Further, in data set [2] (drug dose 2.5 mg, relative to pure NMP), the Relative bioavailability is listed as 100%. In data set [2] (post administration, suggests enterohepatic circulation), the “time of second plasma concentration peak (double peaks)” value is on record as 8 h. Besides, the “survival time of mice after injection of NaNO2” value in data set [3] was determined as 14.33 min. Besides, in data set [4], the bioavailability result is recorded as “lower than 13%”.

Values taken from PMC8118497, “Facile synthesis of PEI-based crystalline templated mesoporous silica with molecular chirality for improved oral delivery of the poorly water-soluble drug” (Drug Delivery, 2021).
